In patent US4981954A, “Novel azoxy compounds and process for production thereof” (Kowa Company, Ltd., priority 1987, dated 1991):
Values after ≈ are worked out from the molar mass of the structure shown.

Experiments:
Assay type in all cases: cell-based
Candida albicans = test: Antifungal activity, minimum growth inhibition concentration (MIC), Candida albicans; conditions: Sabouraud dextrose agar, 27° C., 2 to 4 days
Procedure: (§1) The minimum growth inhibition concentrations (MIC) of the present substances against eumycetes are as tabulated below.
(§2) Culture medium: Sabouraud dextrose agar
(§3) Culturing conditions: 27° C., 2 to 4 days

Trichophyton rubrum = test: Antifungal activity, minimum growth inhibition concentration (MIC), Trichophyton rubrum; conditions: Sabouraud dextrose agar, 27° C., 2 to 4 days
Procedure: as §1, §2, §3

Aspergillus fumigatus = test: Antifungal activity, minimum growth inhibition concentration (MIC), Aspergillus fumigatus; conditions: Sabouraud dextrose agar, 27° C., 2 to 4 days
Procedure: as §1, §2, §3

Cryptococcus neoformans = test: Antifungal activity, minimum growth inhibition concentration (MIC), Cryptococcus neoformans; conditions: Sabouraud dextrose agar, 27° C., 2 to 4 days
Procedure: as §1, §2, §3

[1] = system: Trichophyton mentagraphytes; test: Antifungal activity, minimum growth inhibition concentration (MIC), Trichophyton mentagraphytes
Procedure: as §1, §2, §3

Question: What does the source list for `CCCCC=C[N+]([O-])=NC(C)C(C)O` (stereo not shown) [KA-7367B]?
Answer: MIC (Candida albicans): 50 µg/mL (≈ 250 µM); MIC (Trichophyton rubrum): 100 µg/mL (≈ 499 µM); MIC (Aspergillus fumigatus): 100 µg/mL (≈ 499 µM); MIC (Cryptococcus neoformans): 100 µg/mL (≈ 499 µM); MIC [1]: 100 µg/mL (≈ 499 µM)

Question: For `CCCCC=C[N+]([O-])=NC(C)C(C)=O` (stereo not shown) [KA-7367A], which MIC (Candida albicans) is on record?
Answer: 1.6 µg/mL (≈ 8.07 µM)

Question: And the MIC (Trichophyton rubrum)?
Answer: 3.2 µg/mL (≈ 16.1 µM)

Question: What about the MIC (Aspergillus fumigatus) of the same molecule?
Answer: 6.25 µg/mL (≈ 31.5 µM)

Question: What about the MIC (Cryptococcus neoformans) of the same molecule?
Answer: 3.2 µg/mL (≈ 16.1 µM)

Question: What about the MIC [1] of the same molecule?
Answer: 6.25 µg/mL (≈ 31.5 µM)
